Each structure is given as a SMILES string. Like-named read-outs stand apart in the source and are kept apart here.

In assay [1] the test system is SW620 human colon cancer cells. Kind of assay: SW620 Cell Viability Assay. The assay is classed as cell-based. The settings on record: Homo sapiens, SW-620, 96 h, read-out: Cellular EC50 (μM) SW620. The protocol:
Some cells (S—) were allowed to attach for 24 hrs, serum starved for 48 hrs, and then followed with drug treatments Test Compound Solutions were Prepared in Regular Corresponding Media Supplemented with Serum 2. […] Viability Assay: This assay was performed as follows: • Transfer 50 μL of test compound solution per well from the test compound plate onto the cell plate prepared in Step #1. • Mix the plate with treated cells by pipetting up and down three times with 200 μL multi-channel pipette. • Incubate the cells in 5% CO2 incubator @ 37° C. for 4 days. • Run the CellTiter-Glo™ Luminescent Cell Viability Assay.

The target of assay [2] is T1, Human DYRK1B (Homo sapiens, UniProt Q9Y463).
T1 construct: purchased Invitrogen PR8350B (former PV4649)
Kind of assay: DYRK1B Kinase TR-FRET (IMAP-Tb) Assay. It is filed as biochemical. The settings on record: for IC50: TR-FRET (IMAP-Tb), ATP 70 μM, 37° C. 60 minutes, read-out: Enzyme IC50 (μM) DYRK1B; for inhibition at 10 µM: read-out: % inhibition of DYRK1B at 10 μM test compound concentration. For orientation: In TR-FRET formats the signal depends on donor and acceptor labels being close together.

The target in assay [3] is T2, Human DYRK1A (Homo sapiens, UniProt Q13627).
T2 construct: purchased Invitrogen PV3997
The assay can be described thus: DYRK1A Kinase TR-FRET (IMAP-Tb) Assay. It is filed as biochemical. The settings on record: for IC50: TR-FRET (IMAP-Tb), ATP 70 μM, 37° C. 60 minutes, read-out: Enzyme IC50 (μM) DYRK1A; for inhibition at 10 µM: read-out: % inhibition of DYRK1A at 10 μM test compound concentration. The source says: The kinase TR-FRET (IMAP-Tb) assay uses a fluorescence labeled substrate peptide in the kinase reaction. Upon phosphorylation by the kinase, phosphopeptide is produced, which will be detected by the binding solution provided in IMAP TR-FRET binding kit. After the completion of the kinase reaction, the reaction will be stopped by adding the binding solution containing terbium tracer. This tracer is immobilized on the surface of the IMAP beads, which also contain metal ions on the beads that bind to the phospho-groups of the products. Thus the phosphorylated product of the reaction can enter into close proximity to the tracer, producing resonance energy transfer. Due to the long lifetime of terbium (Tb) fluorescence the detection can be run in time resolved mode, which virtually eliminates fluorescence interference from assay components or compounds.
The TR-FRET signal measurement from this assay, given as an IC50 measurement, is a measure of a test compound's ability to interfere with the phosphorylation of the peptide substrate, that is it inhibits the phosphorylation of the substrate peptide by DYRK1A, and is thus a measure of the test compound's ability to inhibit the activity of DYRK1A.
• 1. Human DYRK1A: from Invitrogen. Part #PV3997 • 2. Substrate Peptide: […] • 3. IMAP TR-FRET IPP Explorer Kit: from Molecular Devices. Part #R8157 • 4. Kinase Assay Buffer (KAB): 10 mM HEPES pH 7.0, 50 mM NaCl, 5 mM MgCl2, 1 mM DTT, 1 mM NaVO4, 200 μg/mL BSA (0.02%) • 5. Assay Plate: Remp polypropylene clear 384-well microplate. […] Detection Plate: Costa black 384-well microplate.
• 1. Transfer 1.5 μL of 20× compound solution to each well of an assay plate. • 2. Add to each well 22.5 μL of KAB Buffer. • 3. Add to each well 3 μL of the solution of DYRK1A and ATP. […] Add to each well 3 μL of the substrate peptide. The assay concentration is 1.0 μM • 5. Incubate the assay plates at 37° C. for 60 minutes. • 6. Add 18 μL of Detection Solution (1:800 diluted Progress bead stock, 1:400 diluted Tb stock, 80% Buffer A, and 20% Buffer B) into each well of detection plates. • 7. Transfer 6 μL of assay solution from the assay plate to the detection plate. • 8. Shake detection plates for 30 minutes. • 9. Read plates in Envision with wavelength set at excitation 340 nm for Tb, emission 490 nm, and […].

T1 sequence (Q9Y463 whole entry): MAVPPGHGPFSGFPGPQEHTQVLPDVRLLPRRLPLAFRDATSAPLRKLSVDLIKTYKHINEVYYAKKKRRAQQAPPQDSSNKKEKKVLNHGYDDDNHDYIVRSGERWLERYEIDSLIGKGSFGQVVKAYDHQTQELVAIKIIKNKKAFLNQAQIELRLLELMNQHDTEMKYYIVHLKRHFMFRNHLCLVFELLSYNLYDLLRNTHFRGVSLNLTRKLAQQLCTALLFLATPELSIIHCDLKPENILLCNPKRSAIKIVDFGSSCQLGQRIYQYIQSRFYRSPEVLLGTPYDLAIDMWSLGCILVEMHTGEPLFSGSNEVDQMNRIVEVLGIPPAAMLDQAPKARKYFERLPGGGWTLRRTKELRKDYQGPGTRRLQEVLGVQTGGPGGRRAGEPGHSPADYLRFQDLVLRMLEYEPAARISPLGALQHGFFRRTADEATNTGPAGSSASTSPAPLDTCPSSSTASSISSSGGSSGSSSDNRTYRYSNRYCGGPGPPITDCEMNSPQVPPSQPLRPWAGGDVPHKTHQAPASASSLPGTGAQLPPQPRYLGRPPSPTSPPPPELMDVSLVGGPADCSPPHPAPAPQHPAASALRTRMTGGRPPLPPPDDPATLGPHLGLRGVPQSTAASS

`COc1ncc2cc(C(=O)Nc3cc(C(=O)NC4(c5ccccc5)CCNCC4)ccc3Cl)c(=O)[nH]c2n1` [Example 166, N-(2-Chloro-5-(4-phenylpiperidin-4-ylcarbamoyl)phenyl)-2-methoxy-7-oxo-7,8-dihydropyrido[2,3-d]pyrimidine-6-carboxamide]: the EC50 (usually the concentration at which the effect is half-maximal) in assay [1] (CellTiter-Glo, 4 days incubation) is more than 10 µM. Further, the IC50 (commonly the concentration needed to halve the response being measured) in assay [2] amounted to 1.89 µM.
Turning to `COc1ncc2cc(C(=O)Nc3cc(C(=O)NC(CN)c4ccccc4)ccc3Cl)c(=O)[nH]c2n1` (centres unmarked) [Example 72, 2-Methoxy-7-oxo-7,8-dihydro-pyrido[2,3-d]pyrimidine-6-carboxylic acid [5-(2-amino-1-phenyl-ethylcarbamoyl)-2-chloro-phenyl]-amide], in assay [1], the EC50 stood at 0.828 µM. Moreover, in assay [2], the IC50 amounted to 0.00935 µM.
Taken in the same sequence, the figures for `COc1ncc2cc(C(=O)Nc3cc(C(=O)N[C@@H](CCN)c4ccccc4)ccc3Cl)c(=O)[nH]c2n1` [Example 176, (S)—N-(5-(3-Amino-1-phenylpropylcarbamoyl)-2-chlorophenyl)-2-methoxy-7-oxo-7,8-dihydropyrido[2,3-d]pyrimidine-6-carboxamide] were more than 1 µM and 1.15 µM.
Regarding `COC(=O)c1ccc(C)c(NC(=O)c2cc3cnc(N4CCOCC4)nc3[nH]c2=O)c1` [Example 29, 4-Methyl-3-[(2-morpholin-4-yl-7-oxo-7,8-dihydro-pyrido[2,3-d]pyrimidine-6-carbonyl)-amino]-benzoic acid methyl ester], the IC50 was found to be 0.0859 µM in assay [3] and 0.12 µM in assay [2].
The like results for `COc1ncc2cc(C(=O)Nc3cc(C(=O)NCc4ccc(Cl)cc4)ccc3Cl)c(=O)[nH]c2n1` [Example 46, 2-Methoxy-7-oxo-7,8-dihydro-pyrido[2,3-d]pyrimidine-6-carboxylic acid [2-chloro-5-(4-chloro-benzylcarbamoyl)-phenyl]-amide] were, in that order, 1.16 µM and 0.192 µM.
Taken in the same sequence, the figures for `COc1ncc2cc(C(=O)Nc3cc(C(=O)NCc4cccnc4)ccc3Cl)c(=O)[nH]c2n1` [Example 67, 2-Methoxy-7-oxo-7,8-dihydro-pyrido[2,3-d]pyrimidine-6-carboxylic acid {2-chloro-5-[(pyridin-3-ylmethyl)-carbamoyl]-phenyl}-amide] were 0.263 µM and 0.669 µM.
The like results for `CN1CCN(c2ncc3cc(C(=O)Nc4cc(C(=O)NCc5cc(F)ccc5F)ccc4Cl)c(=O)[nH]c3n2)CC1` [Example 178, 2-(4-Methyl-piperazin-1-yl)-7-oxo-7,8-dihydro-pyrido[2,3-d]pyrimidine-6-carboxylic acid [2-chloro-5-(2,5-difluoro-benzylcarbamoyl)-phenyl]amide] were, in that order, 0.0748 µM and 0.356 µM.
On to `COc1ncc2cc(C(=O)Nc3cc(C(=O)NCc4ccccc4)ccc3C)c(=O)[nH]c2n1` [Example 27, 2-Methoxy-7-oxo-7,8-dihydro-pyrido[2,3-d]pyrimidine-6-carboxylic acid (5-benzylcarbamoyl-2-methyl-phenyl)-amide], for which the IC50 in assay [3] was determined as 0.376 µM; in assay [2], 2 µM.
With `COc1ncc2cc(C(=O)Nc3cc(C(=O)OCc4ccccc4)ccc3Cl)c(=O)[nH]c2n1` [Example 50, 4-Chloro-3-[(2-methoxy-7-oxo-7,8-dihydro-pyrido[2,3-d]pyrimidine-6-carbonyl)-amino]-benzoic acid benzyl ester], the inhibition at 10 µM in assay [3] came out at 30%; in assay [2], 3%.
Taken in the same sequence, the figures for `CCOCCNc1ncc2cc(C(=O)Nc3cc(C(=O)OC)ccc3Cl)c(=O)[nH]c2n1` [Example 42, 4-Chloro-3-{[2-(2-ethoxy-ethylamino)-7-oxo-7,8-dihydro-pyrido[2,3-d]pyrimidine-6-carbonyl]-amino}-benzoic acid methyl ester] were 60% and 39%.
For `COc1ncc2cc(C(=O)Nc3cc(C(=O)NCc4cccc(Cl)c4)ccc3C)c(=O)[nH]c2n1` [Example 62, 2-Methoxy-7-oxo-7,8-dihydro-pyrido[2,3-d]pyrimidine-6-carboxylic acid [5-(3-chloro-benzylcarbamoyl)-2-methyl-phenyl]-amide], the values for the concentration for half-maximal inhibition (IC50) in assay [3] and in assay [2] were 0.119 µM and 0.437 µM, respectively.
On to `COC(=O)c1ccc(Cl)c(NC(=O)c2cc3cnc(NCCO)nc3[nH]c2=O)c1` [Example 41, 4-Chloro-3-{[2-(2-hydroxy-ethylamino)-7-oxo-7,8-dihydro-pyrido[2,3-d]pyrimidine-6-carbonyl]amino}-benzoic acid methyl ester], for which the IC50 in assay [3] amounted to 0.0796 µM; in assay [2], 0.07 µM.
Taken in the same sequence, the figures for `COc1ncc2cc(C(=O)Nc3cc(C(=O)NCc4ccncc4)ccc3Cl)c(=O)[nH]c2n1` [Example 68, 2-Methoxy-7-oxo-7,8-dihydro-pyrido[2,3-d]pyrimidine-6-carboxylic acid {2-chloro-5-[(pyridin-4-ylmethyl)-carbamoyl]-phenyl}-amide] were 0.251 µM and 0.261 µM.
Turning to `CC(C)(O)CNc1ncc2cc(C(=O)Nc3cc(C(=O)NC(CO)c4ccccc4)ccc3Cl)c(=O)[nH]c2n1` (centres unmarked) [Example 153, N-(2-Chloro-5-(2-hydroxy-1-phenylethylcarbamoyl)phenyl)-2-(2-hydroxy-2-methylpropylamino)-7-oxo-7,8-dihydropyrido[2,3-d]pyrimidine-6-carboxamide], the half-inhibitory concentration (IC50) in assay [3] turned out to be 0.0931 µM; in assay [2], 0.185 µM.
As for `COc1ncc2cc(C(=O)Nc3cc(C(=O)NCc4ccccc4Cl)ccc3Cl)c(=O)[nH]c2n1` [Example 47, 2-Methoxy-7-oxo-7,8-dihydro-pyrido[2,3-d]pyrimidine-6-carboxylic acid [2-chloro-5-(2-chloro-benzylcarbamoyl)-phenyl]-amide], the IC50 was determined as 0.0343 µM in assay [3] and 0.0908 µM in assay [2].
Taken in the same sequence, the figures for `O=C(NCc1cccc(Cl)c1)c1ccc(Cl)c(NC(=O)c2cc3cnc(N4CCC(O)CC4)nc3[nH]c2=O)c1` [Example 92, 2-(4-Hydroxy-piperidin-1-yl)-7-oxo-7,8-dihydro-pyrido[2,3-d]pyrimidine-6-carboxylic acid [2-chloro-5-(3-chloro-benzylcarbamoyl)-phenyl]-amide] were 0.0202 µM and 0.035 µM.
For `CC(NC(=O)c1ccc(Cl)c(NC(=O)c2cc3cnc(N4CCOCC4)nc3[nH]c2=O)c1)c1cccc(Cl)c1` (racemic) [Example 143, 2-Morpholin-4-yl-7-oxo-7,8-dihydro-pyrido[2,3-d]pyrimidine-6-carboxylic acid {2-chloro-5-[1-(3-chloro-phenyl)-ethylcarbamoyl]-phenyl}-amide], the values for the inhibition at 10 µM in assay [3] and in assay [2] were 57% and 24%, respectively.
Regarding `CCOC(=O)c1ccc(Cl)c(NC(=O)c2cc3cnc(OC)nc3[nH]c2=O)c1` [Example 82, 4-Chloro-3-[(2-methoxy-7-oxo-7,8-dihydro-pyrido[2,3-d]pyrimidine-6-carbonyl)-amino]-benzoic acid ethyl ester], the concentration for half-maximal inhibition (IC50) in assay [3] was determined as 0.463 µM; in assay [2] it was 1.11 µM.
On to `O=C(NCc1cccc(Cl)c1)c1cc(NC(=O)c2cc3cnc(N4CCOCC4)nc3[nH]c2=O)c(Cl)cc1F` [Example 144, 2-Morpholin-4-yl-7-oxo-7,8-dihydro-pyrido[2,3-d]pyrimidine-6-carboxylic acid [2-chloro-5-(3-chloro-benzylcarbamoyl)-4-fluoro-phenyl]-amide], for which, in assay [3], the IC50 is 0.205 µM. The inhibition at 10 µM in assay [2] was 23%.
